Experimental data as given in US10981932B2, “Macrocyclic indole derivatives” (Bayer Aktiengesellschaft, priority 2016, dated 2021).
Where a name gives a salt, the structure may show the parent alone.

Tests used:
BCL-XL = biological target: T1, BCL-XL (Homo sapiens, UniProt Q07817); assay: Protein-protein interaction assay BCL-XL/Bad BH3 peptide (BCL-XL assay), TR-FRET; format: binding; details: His-BCL-XL / Bad BH3-derived peptide
T1 construct: BCL-XL (amino acids 1-212, C-terminal fused to a hexahistidine (6×His) tag); purchased BPS Bioscience (San Diego, Calif., USA); host or cells: E. coli
Summary of the method: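 TR-FRET competition of His-tagged human BCL-XL (1 nM final) with biotinylated Bad BH3 peptide, 11 compound concentrations 0.1 nM–20 μM, in Tris pH 7 buffer with NaCl, KF, DTT, BGG. 10 min pre-incubation, then 1 h at 22 °C plus overnight at 4 °C; 665/620 nm ratio normalized, IC50 from 4-parameter fit.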

SUDHL5 [1] = assay: Induction of caspase-3/7 activity (Caspase-Glo 3/7), SUDHL5; format: cell-based; details: caspase-3/7 induction, SUDHL5 cells, 3 h treatment, median
Summary of the method: (§1)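 A 3 h, 37 °C compound incubation precedes the Caspase-Glo 3/7 read. After subtracting medium-only signal, EC50s are fitted against the reference compound's maximal caspase induction.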

SUDHL10 [2] = assay: Induction of caspase-3/7 activity (Caspase-Glo 3/7), SUDHL10; format: cell-based; details: caspase-3/7 induction, SUDHL10 cells, 3 h treatment, median
Summary of the method: as §1

SUDHL5 [3] = assay: Anti-proliferative effect (CellTiter-Glo, 72 h), SUDHL5; format: cell-based; details: SUDHL5 cells, antiproliferation, 72 h incubation, median, read-out: Antiproli SUDHL5 [M] (median)
Summary of the method: (§2)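 Endpoint: CellTiter-Glo luminescence, 10 min after reagent addition. Treatment ran 72 h at 37 °C, humidified. Growth was referenced to a separately plated day 0 plate.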

SUDHL10 [4] = assay: Anti-proliferative effect (CellTiter-Glo, 72 h), SUDHL10; format: cell-based; details: SUDHL10 cells, antiproliferation, 72 h incubation, median, read-out: Antiproli SUDHL10 [M] (median)
Summary of the method: as §2

SUDHL5 [5] = assay: Induction of cytotoxicity (CellTiter-Glo, 5 h), SUDHL5
SUDHL10 [6] = assay: Induction of cytotoxicity (CellTiter-Glo, 5 h), SUDHL10; details: read-out: Cytotox SUDHL10 [M] (median); SUDHL10 cells, cytotoxicity induction, CellTiter-Glo, 5 h incubation, median
[7] = read-out: Cytotox SUDHL5 [M] (median), SUDHL5 cells, cytotoxicity induction, CellTiter-Glo, 5 h incubation, median

T1 sequence (Q07817 1-212): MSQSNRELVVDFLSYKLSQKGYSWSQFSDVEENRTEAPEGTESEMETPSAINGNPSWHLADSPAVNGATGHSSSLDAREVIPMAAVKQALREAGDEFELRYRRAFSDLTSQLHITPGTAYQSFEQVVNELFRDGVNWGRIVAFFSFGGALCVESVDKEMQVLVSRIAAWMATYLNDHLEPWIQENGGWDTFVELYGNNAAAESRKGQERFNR

| Compound | IC50 (BCL-XL) | EC50 (SUDHL5 [1]; Homo sapiens, SU-DHL-5, 3 h) | EC50 (SUDHL10 [2]; Homo sapiens, SU-DHL10, 3 h) | IC50 (SUDHL5 [3]; Homo sapiens, SU-DHL-5, 72 h) | IC50 (SUDHL10 [4]; Homo sapiens, SU-DHL10, 72 h) | IC50 (SUDHL5 [5]; Homo sapiens, SU-DHL-5, 5 h, read-out: Cytotox SUDHL5 [M] (median), SUDHL5 cells, cytotoxicity induction, CellTiter-Glo, 5 h incubation, median) | IC50 (SUDHL10 [6]) | EC50 (SUDHL5 [1]) | EC50 (SUDHL10 [2]) | IC50 (SUDHL5 [3]) | IC50 (SUDHL5 [5]; [7]) | IC50 (SUDHL10 [4]) |
| --- | --- | --- | --- | --- | --- | --- | --- | --- | --- | --- | --- | --- |
| CN1CCCn2c(C(=O)O)c(CCCOc3cccc4ccccc34)c3cccc(c32)-c2c(CN3CCOCC3)nn(C)c2C1 (single isomer, unassigned; enantiomer 1) [Example 1-43, (+)-7,9-dimethyl-11-(morpholin-4-ylmethyl)-1-[3-(naphthalen-1-yloxy)propyl]-4,5,6,7,8,9-hexahydropyrazolo[3′,4′:7,8][1,5]diazecino[9,10,1-hi]indole-2-carboxylic Acid (Enantiomer 1)] | > 20 µM | 6.57 µM | 11.1 µM | 9.58e-06 M | 8.34e-06 M | 6.9e-06 M | 1.48e-05 M | – | – | – | – | – |
| CCc1c2c(nn1C)COCCCCn1c(C(=O)O)c(CCCOc3cccc4ccccc34)c3cccc-2c31 (single isomer, unassigned; enantiomer 1) [Example 148, 3-Ethyl-2-methyl-7-[3-(1-naphthyloxy)propyl]-2,10,11,12,13,15-hexahydropyrazolo[4′,3′:9,10][1,6]oxazacycloundecino[8,7,6-hi]indole-8-carboxylic acid-N-ethylethanamine Salt (Enantiomer 1)] | > 20 µM | – | – | – | 5.87e-06 M | – | 2.4e-06 M | 0.881 µM | 3.48 µM | 2.56e-06 M | 9.08e-07 M | – |
| CCc1c2c(nn1C)CN(C)CCCn1c(C(=O)O)c(CCCOc3cccc4ccccc34)c3ccc(C)c-2c31 (single isomer, unassigned; enantiomer 1) [Example 145, 11-Ethyl-7,10,12-trimethyl-1-[3-(1-naphthyloxy)propyl]-4,5,6,7,8,10-hexahydropyrazolo[3′,4′:7,8][1,5]diazecino[9,10,1-hi]indole-2-carboxylic acid-N-ethylethanamine Salt (Enantiomer 1)] | > 20 µM | – | – | – | – | – | 2.4e-06 M | 0.889 µM | 2.57 µM | 1.85e-06 M | 1.4e-06 M | 4.25e-06 M |
| COCCn1nc2c(c1C)-c1cccc3c(CCCOc4cccc5ccccc45)c(C(=O)O)n(c13)CCCCOC2 (single isomer, unassigned; enantiomer 1) [Example 107, 2-(2-methoxyethyl)-3-methyl-7-[3-(naphthalen-1-yloxy)propyl]-2,10,11,12,13,15-hexahydropyrazolo[4′,3′:9,10][1,6]oxazacycloundecino[8,7,6-hi]indole-8-carboxylic acid-N-ethylethanamine Salt (Enantiomer 1)] | > 20 µM | – | – | – | – | – | 4.65e-06 M | 1.47 µM | 4.91 µM | 3.82e-06 M | 1.73e-06 M | 5.32e-06 M |
| Cc1nn(C)c2c1-c1cccc3c(CCCOc4cccc5cc(F)ccc45)c(C(=O)O)n(c13)CCCOC2 (single isomer, unassigned; enantiomer 1) [Example 047, 1-{3-[(6-fluoronaphthalen-1-yl)oxy]propyl}-9,11-dimethyl-5,6,8,9-tetrahydro-4H-pyrazolo[4′,3′:8,9][1,5]oxazecino[7,6,5-hi]indole-2-carboxylic acid-N-ethylethanamine Salt (Enantiomer 1)] | > 20 µM | – | – | – | – | – | 6.49e-06 M | 2.96 µM | 6.66 µM | 4.41e-06 M | 3.22e-06 M | 3.61e-06 M |
